{
  "source": "patent US10294202B2",
  "about": "“Pyrrolidinones as herbicides” (FMC Corporation, priority 2013, dated 2019)",
  "assay_in_all_cases": "Test A pre-/postemergence herbicide test",
  "key": {"barnyardgrass": {"tested_on": "barnyardgrass", "format": "in vivo, Echinochloa crus-galli", "settings": "for pest or weed control at 1000 g/ha: Echinochloa crus-galli, 240 h, 1000 g ai/ha, read-out: Plant response rating, Barnyardgrass", "in_short": "(§1)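 Seeds sown in loam soil/sand blend received a preemergence directed soil spray of test chemical in non-phytotoxic solvent with surfactant; postemergence plants (2–10 cm, one- to two-leaf stage) were sprayed with the same formulation. After about 10 days in greenhouse, injury was rated visually versus untreated controls, 0 (no effect) to 100 (complete control).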"}, "morningglory": {"tested_on": "morningglory", "format": "in vivo, Ipomoea spp.", "settings": "for pest or weed control at 1000 g/ha: Ipomoea, 240 h, 1000 g ai/ha, read-out: Plant response rating, Morningglory", "excerpt": "(§2) Seeds of plant species selected from bamyardgrass (Echinochloa crus-galli), kochia (Kochia scoparia), ragweed (common ragweed, Ambrosia elatior), ryegrass, Italian (Italian ryegrass, Lolium multiflorum), crabgrass, large (large crabgrass Digitaria sanguinalis), giant foxtail (Setaria faberii), morningglory (Ipomoea spp.), pigweed (Amaranthus retroflexus), velvetleaf (Abutilon theophrasti), wheat (Triticum aestivum), and corn (Zea mays) were planted into a blend of loam soil and sand and treated preemergence with a directed soil spray using test chemicals formulated in a non-phytotoxic solvent mixture which included a surfactant. At the same time, plants selected from these crop and weed species and also blackgrass (Alopecurus myosuroides), and galium (catchweed bedstraw, Galium aparine) were planted in pots containing the same blend of loam soil and sand and treated with postemergence applications of test chemicals formulated in the same manner. Plants ranged in height from 2 to 10 cm and were in the one- to two-leaf stage for the postemergence treatment. Treated plants and untreated controls were maintained in a greenhouse for approximately 10 days, after which time all treated plants were compared to untreated controls and visually evaluated for injury. Plant response ratings, summarized in Table A, are based on a 0 to 100 scale where 0 is no effect and 100 is complete control. A dash (-) response means no test result."}, "velvetleaf": {"tested_on": "velvetleaf", "format": "in vivo, Abutilon theophrasti", "settings": "for pest or weed control at 1000 g/ha: Abutilon theophrasti, 240 h, 1000 g ai/ha, read-out: Plant response rating, Velvetleaf", "in_short": "as §1"}, "wheat": {"tested_on": "wheat", "format": "in vivo, Triticum aestivum", "settings": "for plant injury at 1000 g/ha: Triticum aestivum, 240 h, 1000 g ai/ha, read-out: Plant response rating, Wheat", "excerpt": "as §2"}, "corn": {"tested_on": "corn", "format": "in vivo, Zea mays", "settings": "for Corn plant response rating (crop injury, 0 = no effect, 100 = complete kill) at 1000 g/ha: Zea mays, 240 h, 1000 g ai/ha", "in_short": "as §1"}, "pigweed": {"tested_on": "pigweed", "format": "in vivo, Amaranthus retroflexus", "settings": "for pest or weed control at 1000 g/ha: Amaranthus retroflexus, 240 h, 1000 g ai/ha, read-out: Plant response rating, Pigweed", "in_short": "as §1"}, "giant foxtail": {"tested_on": "giant foxtail", "format": "in vivo, Setaria faberii", "settings": "for pest or weed control at 1000 g/ha: Setaria faberi, 240 h, 1000 g ai/ha, read-out: Plant response rating, Foxtail, Giant", "excerpt": "as §2"}, "crabgrass, large": {"tested_on": "crabgrass, large", "format": "in vivo, Digitaria sanguinalis", "settings": "for pest or weed control at 1000 g/ha: Digitaria sanguinalis, 240 h, 1000 g ai/ha, read-out: Plant response rating, Crabgrass, Large", "in_short": "as §1"}, "[1]": {"settings": "post-emergence, Postemergence, 0 to 100 scale (0 no effect, 100 complete control)"}, "[2]": {"settings": "pre-emergence, Preemergence, visual rating on 0 to 100 scale (0 no effect, 100 complete control), approx. 10 days"}, "[3]": {"settings": "Postemergence, 125 g ai/ha, 0 to 100 scale, 0 no effect, 100 complete control"}, "[4]": {"settings": "Postemergence, 500 g ai/ha, 0 to 100 scale (0 no effect, 100 complete control)"}, "[5]": {"settings": "Preemergence, 125 g ai/ha, visual rating on 0 to 100 scale (0 no effect, 100 complete control)"}, "[6]": {"settings": "preemergence, 500 g ai/ha, 0 to 100 scale"}},
  "note": "Like-named read-outs stand apart in the source and are kept apart here.",
  "data": [
    {"smiles": "O=C(Nc1ccccc1F)C1C(=O)N(O)CC1c1ccc(F)c(F)c1", "note": "(stereo not shown) [Compound 44, 4-(3,4-difluorophenyl)-N-(2-fluorophenyl)-1-hydroxy-2-oxo-3-pyrrolidinecarboxamide]", "values": [
      {"measurement": "pest or weed control at 1000 g/ha", "setting": "barnyardgrass; [1]", "result": 60, "unit": "%"},
      {"measurement": "pest or weed control at 1000 g/ha", "setting": "barnyardgrass; [2]", "result": 40, "unit": "%"},
      {"measurement": "pest or weed control at 1000 g/ha", "setting": "morningglory; [1]", "result": 0, "unit": "%"},
      {"measurement": "pest or weed control at 1000 g/ha", "setting": "morningglory; [2]", "result": 0, "unit": "%"},
      {"measurement": "pest or weed control at 1000 g/ha", "setting": "velvetleaf; [1]", "result": 0, "unit": "%"},
      {"measurement": "pest or weed control at 1000 g/ha", "setting": "velvetleaf; [2]", "result": 0, "unit": "%"},
      {"measurement": "plant injury at 1000 g/ha", "setting": "wheat; [1]", "result": 0, "unit": "%"},
      {"measurement": "plant injury at 1000 g/ha", "setting": "wheat; [2]", "result": 0, "unit": "%"},
      {"measurement": "Corn plant response rating (crop injury, 0 = no effect, 100 = complete kill) at 1000 g/ha", "setting": "corn; [1]", "result": 0, "unit": "%"},
      {"measurement": "Corn plant response rating (crop injury, 0 = no effect, 100 = complete kill) at 1000 g/ha", "setting": "corn; [2]", "result": 0, "unit": "%"},
      {"measurement": "pest or weed control at 1000 g/ha", "setting": "pigweed; [1]", "result": 0, "unit": "%"},
      {"measurement": "pest or weed control at 1000 g/ha", "setting": "pigweed; [2]", "result": 0, "unit": "%"},
      {"measurement": "pest or weed control at 1000 g/ha", "setting": "giant foxtail; [1]", "result": 30, "unit": "%"},
      {"measurement": "pest or weed control at 1000 g/ha", "setting": "giant foxtail; [2]", "result": 70, "unit": "%"},
      {"measurement": "pest or weed control at 1000 g/ha", "setting": "crabgrass, large; [1]", "result": 50, "unit": "%"},
      {"measurement": "pest or weed control at 1000 g/ha", "setting": "crabgrass, large; [2]", "result": 90, "unit": "%"}
    ]},
    {"smiles": "O=C1NCC(c2ccccc2)C1(Br)C(=O)Nc1ccc(Br)cc1F", "note": "(stereo not shown) [Compound 94]", "values": [
      {"measurement": "Plant response rating, Barnyardgrass", "setting": "barnyardgrass; [3]", "result": 0},
      {"measurement": "Plant response rating, Barnyardgrass", "setting": "barnyardgrass; [4]", "result": 0},
      {"measurement": "Barnyardgrass plant response rating", "setting": "barnyardgrass; [5]", "result": 0},
      {"measurement": "Plant response rating, Barnyardgrass", "setting": "barnyardgrass; preemergence, 500 g ai/ha, 0 to 100 scale (0 no effect, 100 complete control)", "result": 0},
      {"measurement": "Plant response rating, Morningglory", "setting": "morningglory; [3]", "result": 0},
      {"measurement": "Plant response rating, Morningglory", "setting": "morningglory; [4]", "result": 0},
      {"measurement": "Morningglory plant response rating", "setting": "morningglory; [5]", "result": 0},
      {"measurement": "Plant response rating, Morningglory", "setting": "morningglory; [6]", "result": 0},
      {"measurement": "Plant response rating, Velvetleaf", "setting": "velvetleaf; [3]", "result": 0},
      {"measurement": "Plant response rating, Velvetleaf", "setting": "velvetleaf; [4]", "result": 0},
      {"measurement": "Velvetleaf plant response rating", "setting": "velvetleaf; [5]", "result": 0},
      {"measurement": "Plant response rating, Wheat", "setting": "wheat; [3]", "result": 0},
      {"measurement": "Plant response rating, Wheat", "setting": "wheat; [4]", "result": 0},
      {"measurement": "Wheat plant response rating", "setting": "wheat; [5]", "result": 0},
      {"measurement": "Plant response rating, Wheat", "setting": "wheat; [6]", "result": 0},
      {"measurement": "Plant response rating, Corn", "setting": "corn; [3]", "result": 0},
      {"measurement": "Plant response rating, Corn", "setting": "corn; [4]", "result": 0},
      {"measurement": "Corn plant response rating", "setting": "corn; [5]", "result": 0},
      {"measurement": "Plant response rating, Corn", "setting": "corn; [6]", "result": 0},
      {"measurement": "Plant response rating, Pigweed", "setting": "pigweed; [3]", "result": 0},
      {"measurement": "Plant response rating, Pigweed", "setting": "pigweed; [4]", "result": 0},
      {"measurement": "Pigweed plant response rating", "setting": "pigweed; [5]", "result": 0},
      {"measurement": "Plant response rating, Foxtail, Giant", "setting": "giant foxtail; [3]", "result": 0},
      {"measurement": "Plant response rating, Foxtail, Giant", "setting": "giant foxtail; [4]", "result": 0},
      {"measurement": "Foxtail, Giant plant response rating", "setting": "giant foxtail; [5]", "result": 0},
      {"measurement": "Plant response rating, Foxtail, Giant", "setting": "giant foxtail; [6]", "result": 0},
      {"measurement": "Plant response rating, Crabgrass, Large", "setting": "crabgrass, large; [3]", "result": 0},
      {"measurement": "Plant response rating, Crabgrass, Large", "setting": "crabgrass, large; [4]", "result": 0},
      {"measurement": "Crabgrass, Large plant response rating", "setting": "crabgrass, large; [5]", "result": 0},
      {"measurement": "Plant response rating, Crabgrass, Large", "setting": "crabgrass, large; [6]", "result": 50}
    ]}
  ]
}
